pIC50: −log10 of the molar value.

The assay deals with T1, b-Raf V600E (Homo sapiens, UniProt P15056, V600E).
T1 construct: recombinant human b-Raf residues 416-end containing a V600E mutation; purchased Upstate 14-5M; host or cells: baculovirus, Sf21 insect cells
T1 sequence (P15056 416-766 V600E): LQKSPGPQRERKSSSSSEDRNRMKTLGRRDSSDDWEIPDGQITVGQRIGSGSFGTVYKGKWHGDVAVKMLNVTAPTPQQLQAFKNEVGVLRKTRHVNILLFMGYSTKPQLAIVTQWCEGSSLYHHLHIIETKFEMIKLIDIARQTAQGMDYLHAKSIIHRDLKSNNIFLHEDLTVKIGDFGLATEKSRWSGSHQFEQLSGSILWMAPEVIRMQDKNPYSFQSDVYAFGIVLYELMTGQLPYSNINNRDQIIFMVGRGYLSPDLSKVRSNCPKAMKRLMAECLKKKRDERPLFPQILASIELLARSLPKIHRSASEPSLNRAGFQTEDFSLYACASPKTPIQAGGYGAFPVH
The assay can be described thus: b-Raf V600E mutant HTRF assay with 6H-MEK as substrate (dose response). The format is biochemical. The note with it: kinase enzyme inhibition, 6H-MEK substrate, read-out: bRaf(V600E) IC50. Here is the method: Kinase Enzyme Inhibition Assay (IC50)
• Enzyme: recombinant human b-Raf residues 416-end with N-terminal GST-tag from Upstate; (expressed by baculovirus in Sf21 insect cells), 0.26 mg/mL (3.87 μM assuming a molecular weight of 67.2 kD) Cat. #14-530M, Lot #25502AU, stored at −80° C. • Substrate: WT full-length 6H-MEK, 4.94 mg/mL (154.4 μM assuming a MW of 32 kD) stored at −15° C. • Antibodies: Rabbit (α-P-(Ser 217/221)-MEK-1/2 Ab (from Cell Signaling, Cat. #9121B, Lot 14); Eu-(α-rabbit IgG (from Wallac, Cat. #AD0083, Lot 318663, 710 ug/mL, 4.4 μM); (α-6H-SureLight-APC (from Martek, Cat. #AD0059H, Lot E012AB01, 3.03 μM). • Reader: Envision from PerkinElmer, HTRF reading mode with 412 mirror • Assay Plate: Matrix all-black polypropylene plates (Cat. #4344) • Others: Weidman 384 polypropylene plates (REMP) for compound plate. Assay Procedure: • (1) Prepare Kinase Assay Buffer (KAB): 50 mM HEPES (HyClone) pH7, 10 mM MgCl2, 1 mM DTT, 0.1 mM […], and 0.3 mg/ml BSA. • (2) Prepare 6H-MEK (150 nM) in KAB. Add 12 μL/well to the assay plate. • (3) Prepare ATP (66 μM) in KAB. • (4) Dilute compounds to 2.4 mM and any positive controls to 480 μM in DMSO. Perform 10-point 3× dilution in DMSO. Withdraw 2.5 μL/well of DMSO solution and add to 27.5 μL/well ATP solution in (3). • (5) Mix, then add 6 μL/well of solution in (4) to the assay plate for a DMSO concentration of 2.1% during MEK phosphorylation. • (6) Prepare b-Raf WT (100 μM) in KAB. • (7) Add 6 μL/well of KAB in columns 1-2 and 6 μL/well of b-Raf WT in columns 3-24. • (8) Incubate at 37° C. for 30 min. • (9) Prepare rabbit (α-P-(Ser 217/221 )-MEK-1/2 Ab (1:200 from stock) in AB1: 50 mM HEPES pH7, 0.2 mg/ml BSA, and 43 mM EDTA. • (10) To stop reaction, add 6 μL/well of solution from (9) to the assay plate and incubate at 37° C. for 30 min. • (11) Prepare Eu-(α-rabbit IgG (9 nM) and (α-6H-SureLight-APC (180 nM) in AB2: 50 mM HEPES pH7 and 0.2 mg/mL BSA. • (12) Add 6 μL/well of solution from (11) to the assay plate. • (13) For determining the spectrum cross talk factor, prepare 2 samples following steps (1) to (10). For the blank sample, add 6 μL/well of AB2. For the cross talk factor sample, add 6 μL/well of Eu-anti rabbit IgG (9 nM). • (14) Incubate at room temperature for 1.5 hours. • (15) Read HTRF signals at 615 nm and 665 nm on the Envision. Normalize HTRF signals after spectrum cross-talk correction. b-Raf V600E Mutant HTRF Assay With 6H-MEK as Substrate (Dose Response) Assay Principle:
The assay utilizes 6H-MEK as the substrate. Upon b-Raf V600E phosphorylation, phosphorylated 6H-MEK is detected with rabbit anti-phospho-MEK1/2, Eu-labeled anti-rabbit, and APC-labeled anti-6H antibodies.
Reagents and Instruments:
• Enzyme: recombinant human b-Raf residues 416-end containing a V600E mutation with N-terminal GST-tag from Upstate; (expressed by baculovirus in Sf21 insect cells), 0.26 mg/mL ([…] assuming a molecular weight of 67.3 kD) Cat. #14-5M, Lot #25633AU, stored at −80° C. • Substrate: WT full-length 6H-MEK, 4.94 mg/mL (154.4 μM assuming a MW of 32 kD) stored at −15° C. • Antibodies: Rabbit (α-P-(Ser 217/221)-MEK-1/2 Ab (from Cell Signaling, Cat. #9121B, Lot 14); Eu-(α-rabbit IgG (from Wallac, Cat. #AD0083, Lot 318663, 710 ug/mL, 4.4 μM); (α-6H-SureLight-APC (from Martek, Cat. #AD0059H, Lot E012AB01, 3.03 μM). • Reader: Envision from PerkinElmer, HTRF reading mode with 412 mirror • Assay Plate: Matrix all-black polypropylene plates (Cat. #4344) • Others: Weidman 384 polypropylene plates (REMP) for compound plate. Assay Procedure: • (1) Prepare Kinase Assay Buffer (KAB): 50 mM HEPES (HyClone) pH7, 10 mM MgCl2, 1 mM DTT, 0.1 mM […], and 0.3 mg/ml BSA. • (2) Prepare 6H-MEK (150 nM) in KAB. Add 12 μl/well to the assay plate. • (3) Prepare ATP (66 μM) in KAB. • (4) Dilute compounds to 2.4 mM and positive controls to 480 μM in DMSO. • Perform 10-point 3× dilution in DMSO. […]
`Cc1noc(-c2ccc(C)c(OCc3nn(C)c4ncnc(N)c34)c2)n1` [Example 13, 4-Amino-1-1-methyl-3-[2-methyl-5-(3-methyl-[1,2,4]oxadiazol-5-yl)-phenoxymethyl]-1H-pyrazolo[3,4-d]pyrimidine]: the pIC50 is under 5.00.
The figure for `Cc1ccc(NC(=O)c2cccc(Cl)c2)cc1OCc1nn(C)c2ncnc(N)c12` [Example 11, N-[3-(4-Amino-1-methyl-1H-pyrazolo[3,4-d]pyrimidin-3-ylmethoxy)-4-methyl-phenyl]-3-chloro-benzamide] is over 5.00; for `Cc1nnc(-c2ccc(C)c(OCc3nn(C)c4ncnc(N)c34)c2)o1` [Example 21, 1-Methyl-3-[2-methyl-5-(5-methyl-[1,3,4]oxadiazol-2-yl)-phenoxymethyl]-1H-pyrazolo[3,4-d]pyrimidin-4-ylamine] it is under 5.00; for `Cc1ccc(OCc2ccc(Cl)cc2)cc1OCc1nn(C)c2ncnc(N)c12` [Example 19, 3-[5-(4-Chloro-benzyloxy)-2-methyl-phenoxymethyl]-1-methyl-1H-pyrazolo[3,4-d]pyrimidin-4-ylamine] it is over 5.00.
The figure for `Cc1ccc(OCc2ccccc2)cc1OCc1nn(C)c2ncnc(N)c12` [Example 15, 3-(5-Benzyloxy-2-methyl-phenoxymethyl)-1-methyl-1H-pyrazolo[3,4-d]pyrimidin-4-ylamine] is over 5.00; for `Cc1ccc(C(=O)Nc2ccc(Cl)cc2)cc1OCc1nn(C)c2ncnc(N)c12` [Example 17, 3-(4-Amino-1-methyl-1H-pyrazolo[3,4-d]pyrimidin-3-ylmethoxy)-N-(4-chloro-phenyl)-4-methyl-benzamide] it is over 5.00.
The same measure for `Cc1ccc(NC(=O)c2ccc(NCCO)c(Cl)c2)cc1OCc1nn(C)c2ncnc(N)c12` [Example 9, N-[3-(4-Amino-1-methyl-1H-pyrazolo[3,4-d]pyrimidin-3-ylmethoxy)-4-methyl-phenyl]-3-chloro-4-(2-hydroxy-ethylamino)-benzamide]: over 5.00.
Take `Cn1nc(COc2cccc(OCc3ccccc3)c2)c2c(N)ncnc21` [Example 7, 3-(3-Benzyloxy-phenoxymethyl)-1-methyl-1H-pyrazolo[3,4-d]pyrimidin-4-ylamine]: the pIC50 was under 5.00.

The record behind these values is patent publication US7968554B2, “Pyrazolo[3,4-d]pyrimidine derivatives” (Hoffman-La Roche Inc., priority 2007, dated 2011).
